Experimental data as given in article PMC8597734 (Antimicrobial Agents and Chemotherapy, 2021).
In brackets after ≈: the same amount, converted by molar mass. Like-named read-outs stand apart in the source and are kept apart here.

Columns and labels:
[1] = tested on: M. abscessus ATCC 19977 MXF_R1 (GyrA D96Y); assay: microbe, parasite or virus in culture; format: cell-based, Mycobacterium abscessus; settings: Mycobacteroides abscessus, ATCC19977
[2] = tested on: M. abscessus subsp. abscessus M199; assay: microbe, parasite or virus in culture; format: cell-based, Mycobacterium abscessus; settings: Mycobacteroides abscessus, 72 h
[3] = Mouse oral pharmacokinetics; format: in vivo; settings: for concentration at 24 h / AUC(0-t) / half-life: female; for concentration at 24 h: CD-1, mouse, below limit of quantitation (LOQ), read-out: plasma concentration at the 24h time point; for AUC(0-t) / half-life: mouse
Experimental: All animal studies were ethically reviewed and carried out in accordance with the Institutional Animal Care and Use Committee of Hackensack Meridian Health. Six-week-old CD-1 female mice (20–25 g) were used in pharmacokinetic studies. Groups of 3 mice received a single oral dose of EC/11716 formulated in 0.4% methylcellulose, at either 50, 200 or 400 mg/kg. Aliquots of 20 μl of blood were collected from the lateral tail vein by serial puncture from each mouse at 0.5, 1, 3, 5, 7 and 24h post dose in K2EDTA tubes. Plasma was recovered after centrifugation and stored at −80°C until analyzed by high pressure liquid chromatography coupled to tandem mass spectrometry.
Neat 1 mg/ml DMSO stocks of EC/11716 were serial diluted in 50/50 Acetonitrile water to create standard curves and quality control spiking solutions. Standards and QCs were created by adding 10μls of spiking solutions to 90μls of drug free plasma (CD-1 K2EDTA Mouse, Bioreclamation IVT). 10μls of control, standard, QC, or study sample were added to 100 μl of Acetonitrile/Methanol 50/50 protein precipitation solvent containing 10 ng/ml of the internal standard Verapamil (Sigma-Aldrich). Extracts were vortexed for 5 min and centrifuged at 4000 RPM for 5 min. 75 μl of supernatant was transferred for HPLC-MS/MS analysis and diluted with 75 μl of Milli-Q deionized water.
LC-MS/MS analysis was performed on a Sciex Applied Biosystems Qtrap 6500+ triple-quadrupole mass spectrometer coupled to a Shimadzu Nexera X2 UHPLC system to quantify each drug in plasma. Chromatography was performed on a Phenomenex Luna Omega column (2.1 × 100 mm; particle size, 3 μm) using a reverse phase gradient. Milli-Q deionized water with 0.1% formic acid was used for the aqueous mobile phase and 0.1% formic acid in acetonitrile for the organic mobile phase. Multiple-reaction monitoring of parent/daughter transitions in electrospray positive-ionization mode was used to quantify the analytes. The following MRM transitions were used for EC/11716 (458.09/203.10) and Verapamil (455.40/165.00). Sample analysis was accepted if the concentrations of the quality control samples were within 20% of the nominal concentration. Data processing was performed using Analyst software (version 1.6.2; Applied Biosystems Sciex).

[4] = tested on: M. abscessus subsp. abscessus M337; assay: microbe, parasite or virus in culture; format: cell-based, Mycobacterium abscessus; settings: Mycobacteroides abscessus, 72 h
M. abscessus Bamboo [5] = assay: microbe, parasite or virus in culture; format: cell-based, Mycobacterium abscessus; settings: Mycobacteroides abscessus, 72 h
[6] = tested on: M. abscessus Bamboo RM4 (GyrA D91G); assay: microbe, parasite or virus in culture; format: cell-based, Mycobacterium abscessus
ChromlogD assay = format: physicochemical; settings: reversed phase HPLC column (Gemini NX C18)
Experimental: The Chromatographic Hydrophobicity Index (CHI) values are measured using reversed phase HPLC column (50 × 2 mm […] Gemini NX C18, Phenomenex, UK) with fast acetonitrile gradient at starting mobile phase of pHs 2, 7.4 and 10.5. CHI values are derived directly from the gradient retention times by using a calibration line obtained for standard compounds. The CHI value approximates to the volume % organic concentration when the compound elutes. CHI is linearly transformed into ChromlogD by least-square fitting of experimental CHI values to calculated ClogP values for over 20K research compounds using the following formula: ChromlogD = 0.0857CHI-2.00. The average error of the assay is ±3 CHI unit or ±0.25 ChromlogD.

[7] = tested on: M. abscessus subsp. abscessus K21; assay: M. abscessus mouse infection model; format: in vivo, Mycobacterium abscessus; settings: NOD SCID mice, intranasal infection, 400 mg/kg oral once daily for 10 days; statistically significant
Experimental: In vivo efficacy determinations were carried out as described previously, using 8-week-old female NOD.CB17-Prkdc^scid/NCrCrl (NOD SCID) mice (Charles River Laboratories) and the M. abscessus subsp. abscessus K21 strain ([48]). Briefly, anesthetized animals were infected by intranasal delivery of ∼10^6 CFU of M. abscessus subsp. abscessus K21. Acute infection was achieved within 1 day. Drugs or the vehicle control was administered to NOD SCID mice once daily for 10 consecutive days by oral gavage, starting from 1 day postinfection. Clarithromycin was formulated in 0.4% methyl cellulose–sterile water and administered at a dose of 250 mg/kg. […] EC/11716 was formulated in 0.4% methyl cellulose–sterile water and administered at 400 mg/kg. All mice were euthanized 24 h after the last dose (11 days postinfection), and their lungs and spleen were aseptically removed prior to homogenization. The bacterial load in these organs was determined by plating serial dilutions of the organ homogenates onto Middlebrook 7H11 agar (BD Difco) supplemented with 0.2% (vol/vol) glycerol and 10% (vol/vol) OADC. The agar plates were incubated for 5 days at 37°C prior to counting of colonies. All studies were conducted in accordance with the GSK Policy on the Care, Welfare and Treatment of Laboratory Animals and were reviewed the Institutional Animal Care and Use Committee either at GSK or by the ethical review process at the institution where the work was performed. All experiments involving live animals were approved by the Institutional Animal Care and Use Committee of the Center for Discovery and Innovation, Hackensack Meridian Health.

M. abscessus Bamboo [8] = tested on: M. abscessus Bamboo
[9] = tested on: M. intracellulare ATCC 13950; assay: microbe, parasite or virus in culture; format: cell-based; settings: Mycobacterium intracellulare, ATCC13950, 96 h
[10] = tested on: anaerobic, nonreplicating M. abscessus Bamboo; assay: MBC determination under anaerobic conditions; format: cell-based, Mycobacterium abscessus; settings: 48 h drug exposure
[11] = tested on: M. abscessus subsp. abscessus M404; assay: microbe, parasite or virus in culture; format: cell-based, Mycobacterium abscessus; settings: Mycobacteroides abscessus, 72 h
[12] = mice, oral 400 mg/kg, from PK profiles and potency data

**Q.** For COc1cnc2ccc(=O)n(CCN3CCC(NCc4cnc(CO)c(Cl)c4)CC3)c2c1 [EC/11716], which MIC [1] is on record?
**A.** ≤ 10 µM

**Q.** What about the MIC [2] of the same compound?
**A.** 3.8 µM (≈ 1.74 µg/mL)

**Q.** What about the “DNAUC[0-24]_50 mg/kg” value ([3]; CD-1 mice, oral 50 mg/kg, dose-normalized AUC, mean (SD)) of the same compound?
**A.** 58 (16) ng*h/ml per mg/kg

**Q.** What about the Tmax_50 mg/kg ([3]; CD-1 mice, oral 50 mg/kg, range of values) of the same compound?
**A.** 30 to 60 min

**Q.** What about the “DNAUC[0-24]_200 mg/kg” value ([3]; CD-1 mice, oral 200 mg/kg, dose-normalized AUC, mean (SD)) of the same compound?
**A.** 167 (24) ng*h/ml per mg/kg

**Q.** What about the Tmax_200 mg/kg ([3]; CD-1 mice, oral 200 mg/kg, range of values) of the same compound?
**A.** 0.5−1.0 h

**Q.** What about the “DNAUC[0-24]_400 mg/kg” value ([3]; CD-1 mice, oral 400 mg/kg, dose-normalized AUC, mean (SD)) of the same compound?
**A.** 202 (8) ng*h/ml per mg/kg

**Q.** And the Tmax_400 mg/kg ([3]; CD-1 mice, oral 400 mg/kg, range of values)?
**A.** 30 to 60 min

**Q.** And the Cmax_50 mg/kg ([3]; CD-1 mice, single oral dose 50 mg/kg, plasma, mean (SD))?
**A.** 632 (430) ng/ml

**Q.** And the Cmax_200 mg/kg ([3]; CD-1 mice, single oral dose 200 mg/kg, plasma, mean (SD))?
**A.** 7,177 (618) ng/ml

**Q.** And the Cmax_400 mg/kg ([3]; CD-1 mice, single oral dose 400 mg/kg, plasma, mean (SD))?
**A.** 16,767 (8,281) ng/ml

**Q.** And the concentration at 24 h ([3]; plasma, mice, oral 50 mg/kg)?
**A.** < 20 ng/mL

**Q.** What about the concentration at 24 h ([3]; plasma, mice, oral 200 mg/kg) of the same compound?
**A.** < 20 ng/mL

**Q.** What about the AUC(0-t) ([3]; plasma, CD-1 mice, oral 50 mg/kg, mean (SD), read-out: AUC[0-24]_50 mg/kg) of the same compound?
**A.** 2900 ng·h/mL

**Q.** What about the half-life ([3]; plasma, CD-1 mice, oral 50 mg/kg, mean (SD), read-out: Elimination T1/2 _50 mg/kg (converted)) of the same compound?
**A.** 162 min

**Q.** And the AUC(0-t) ([3]; plasma, CD-1 mice, oral 200 mg/kg, mean (SD), read-out: AUC[0-24]_200 mg/kg)?
**A.** 33400 ng·h/mL

**Q.** And the half-life ([3]; plasma, CD-1 mice, oral 200 mg/kg, mean (SD), read-out: Elimination T1/2 _200 mg/kg (converted))?
**A.** 102 min

**Q.** What about the AUC(0-t) ([3]; plasma, CD-1 mice, oral 400 mg/kg, mean (SD), read-out: AUC[0-24]_400 mg/kg) of the same compound?
**A.** 80700 ng·h/mL

**Q.** And the half-life ([3]; plasma, CD-1 mice, oral 400 mg/kg, mean (SD), read-out: Elimination T1/2 _400 mg/kg (converted))?
**A.** 216 min

**Q.** What about the “time above MIC of M. abscessus K21 planktonic cultures” value [3, 12] of the same compound?
**A.** 67%

**Q.** What about the “time above MIC of M. abscessus biofilms” value [3, 12] of the same compound?
**A.** greater than 70%

**Q.** What about the MIC [4] of the same compound?
**A.** 2.4 µM (≈ 1.1 µg/mL)

**Q.** And the MIC (M. abscessus Bamboo [5])?
**A.** 2.5 µM (≈ 1.14 µg/mL)

**Q.** And the MIC [6]?
**A.** >100 µM

**Q.** What about the MIC ([6]; Mycobacteroides abscessus) of the same compound?
**A.** > 100 µM

**Q.** And the chromatographic logD (ChromlogD assay; pH 7.4, read-out: ChromLogD pH 7.4)?
**A.** 1.73

**Q.** What about the chromatographic logD (ChromlogD assay; read-out: LogD) of the same compound?
**A.** 1.74

**Q.** What about the “reduction in lung CFU” value [7] of the same compound?
**A.** 1 log

**Q.** And the frequency of resistance (M. abscessus Bamboo [8])?
**A.** 1.8 × 10^−8 /CFU

**Q.** And the MIC [9]?
**A.** 3.3 µM (≈ 1.51 µg/mL)

**Q.** And the MBC [10]?
**A.** >100 µM

**Q.** What about the MBC ([10]; Mycobacteroides abscessus) of the same compound?
**A.** > 100 µM

**Q.** And the MIC [11]?
**A.** 2.6 µM (≈ 1.19 µg/mL)
